Assay results: patent publication US20110105565A1, “WATER SOLUBLE SMALL MOLECULE INHIBITORS OF THE CYSTIC FIBROSIS TRANSMEMBRANE CONDUCTANCE REGULATOR” (THE REGENTS OF THE UNIVERSITY OF CALIFORNIA, priority 2008, published 2011)
In brackets after ≈: the same amount, converted by molar mass. Several values for one entry are separate records, joined by “and”; a condition that tells them apart may be missing. Identical values can stand only once.

How the values were obtained:
MDCK cells [1] = assay: MDCK cell cytotoxicity, crystal violet staining; assay type: cell-based, Canine; details: 20 μM, 72 h
Method: To test whether inhibition of cyst growth could be related to cytotoxicity, certain compounds were tested for their effects on cell viability, cell proliferation and apoptosis. Crystal violet staining was used to assess compound effects on cytotoxicity (see, e.g., Johnson et al., Clin Cancer Res 11: 6924-6932, 2005). MDCK cells were incubated for 24 h on 96-well plates, and then incubated for 72 h with test compounds at 20 μM. Medium was removed and adherent cells were fixed and stained for 30 min with 0.5% crystal violet in 20% methanol. Plates were washed with distilled water, and the stain was extracted with Sorenson's buffer (0.1 mol/L sodium citrate, pH 4.2, in 50% ethanol) overnight at 4° C., and absorbance measured at 570 nm.

human wildtype CFTR [2] = biological target: T1, human wildtype CFTR (Homo sapiens, UniProt P13569); assay: Fluorescence cell-based assay of CFTR inhibition (YFP iodide influx, FRT cells); parameters: expressed in transfected cells; host or cells: Fisher rat thyroid (FRT) cells; details: for CFTR inhibitory activity (in words): structure-activity discussion
Method: CFTR inhibition by thiazolidinone derivative compounds was determined by a fluorescence cell-based assay utilizing doubly transfected cells expressing human wild-type CFTR and a yellow fluorescent protein (YFP) iodide sensor, as described (see, e.g., Galietta, et al., J. Physiol. 281:C1734-C1742 (2001)). Fisher rat thyroid (FRT) cells stably expressing wild-type human CFTR and YFP-H148Q were cultured on 96-well black-wall plates as described (see, e.g., Ma, et al., J. Clin. Invest. 110:1651-1658 (2002)). Cells in 96-well plates were washed three times, and then CFTR was activated by incubation for 15 minutes with an activating cocktail containing 10 μM forskolin, 20 μM apigenin, and 100 μM IBMX. Test compounds were added 5 minutes before assay of iodide influx in which cells were exposed to a 100 mM inwardly directed iodide gradient. YFP fluorescence was recorded for 2 seconds before and 12 seconds after creation of the iodide gradient. Initial rates of iodide influx were computed from the time course of decreasing fluorescence after the iodide gradient.
CFTR-facilitated iodide influx following extracellular iodide addition results in quenching of cytoplasmic YFP fluorescence.

[3] = Solubility measurements in saline (PBS, LC/MS); assay type: physicochemical; details: for solubility in saline / aqueous solubility: values in text, LC/MS; for Solubility in saline: Table 3, PBS, DMSO <2%
Method: Solubility measurements. A saturated compound solution was prepared by addition of DMSO stock to phosphate buffered saline (final DMSO 2%) followed by sonication for 5 min at 25° C. and shaking at room temperature for 1 h. After centrifugation at 15,000 rpm for 1 h, the supernatant was analyzed by LC/MS with concentration determined from area under the curve, standardized against calibration data. A standard curve for each compound was obtained by plotting area under the curve from chromatograms against inhibitor concentration. The concentration range of the standard solutions was 1-15 μM (for 5) and 1-100 μM (other compounds). In all cases, standard curves prepared were linear with r>0.998.
A saturated drug solution of a compound was prepared by addition of the compound in DMSO to phosphate buffered saline (PBS), followed by sonication for 5 min at 25° C. Final concentration of DMSO was <2%. Each saturated solution was centrifuged and filtered. The saturated supernatant solution was diluted and injected into LC/MS. The concentration was determined from area under the curve using a calibration curve.

FRT cells = assay: Cytotoxicity measurements, crystal violet staining of FRT cells; assay type: cell-based, rat; details: 48 h; for % Cell viability 20 μM / % Cell viability 50 μM: crystal violet staining
Method: Cytotoxicity measurements. FRT cells in confluent monolayers were incubated with compounds for 2 days. Cells were washed 3 times, fixed (cytofix, 30 min) and stained with crystal violet (100 μl, 0.5%, 10 min) using standard procedures. Excess crystal violet was removed by washing, and dye was extracted with Sorenson's buffer (0.1 M sodium citrate, 50% ethanol, pH 4.2). Crystal violet was quantified by measurement of absorbance at 650 nm. The percentage crystal violet staining was determined from test wells measured 8 times, compared to blanks (wells not containing cells) and vehicle-treated cells.
Cytotoxicity analysis was performed for Tetrazolo-172, Oxo-172, α-Me-172 and Pyridine-NO-172 (Compound 17) and compared with CFTRinh-172 (Table 3). […] Crystal violet staining was reduced for Tetrazolo-172 and α-Me-172 at 50 μM.

human wildtype CFTR [4] = biological target: T1, human wildtype CFTR; assay: Short-circuit current measurements, apical chloride current in FRT cells; assay type: cell-based; parameters: expressed in transfected cells; host or cells: FRT (Fisher rat thyroid) cells; details: for inhibition of CFTR in short-circuit current analysis (in words): increasing concentration, forskolin-stimulated
Method: Short-circuit current measurements. FRT cells (stably expressing human wildtype CFTR) were cultured on [sequence] filters with 1 cm^2 surface area (Corning-Costar) to resistance >1,000 Ω·cm^2 as described (see, e.g., Ma et al., J. Clin. Invest. 110:1651-1658 ((2002)); Sonawane et al., FASEB J. 20:130-132 (2006)). Filters were mounted in an Easymount Chamber System (Physiologic Instruments, San Diego). For apical current measurements, the basolateral hemichamber contained (in mM): 130 NaCl, 2.7 KCl, 1.5 KH2PO4, 1 CaCl2, 0.5 MgCl2, 10 Na-HEPES, 10 glucose (pH 7.3). The basolateral membrane was permeabilized with amphotericin B (250 μg/ml) for 30 min. In the apical solution 65 mM NaCl was replaced by sodium gluconate, and CaCl2 was increased to 2 mM. Solutions were bubbled with 95% O2/5% CO2 and maintained at 37° C. Current was recorded using a DVC-1000 voltage-clamp (World Precision Instruments) using Ag/AgCl electrodes and 1 M KCl agar bridges.
CFTR was stimulated by cAMP agonist forskolin and increasing concentration of test compounds was added.

MDCK cells [5] = assay: MDCK cell cyst model of polycystic kidney disease; assay type: cell-based, Canine; details: 10 μM
Excerpt: An MDCK cell model of polycystic kidney disease was used to screen CFTR inhibitors of the thiazolidinone and glycine hydrazide classes for reducing cyst formation and expansion. […] Culture of MDCK cells in three-dimensional collagen gels produces a polarized, single-layer, thinned epithelium surrounding a fluid-filled space, apical […] microvilli, a solitary cilium, and apical tight junctions (see, e.g., McAteer et al., Scan Elect Microsc (Pt 3): 1135-1150, 1986; McAteer et al., Scanning Microsc 2: 1739-1763, 1988; and Taide et al., Eur J Clin Invest 26: 506-513, 1996).
Type I MDCK cells (ATCC No. CCL-34) were cultured at 37° C. in a humidified 95% air/5% CO2 atmosphere in a 1:1 mixture of Dulbecco's modified Eagle's medium (DMEM) and Ham's F-12 nutrient medium supplemented with 10% fetal bovine serum (Hyclone), 100 U/mL penicillin and 100 μg/mL streptomycin. To generate cysts, four hundred MDCK cells were suspended in 0.4 ml of ice-cold Minimum Essential Medium containing 2.9 mg/mL collagen (PuRECOL, Inamed Biomaterials, Fremont Calif.), 10 mM HEPES, 27 mM NaHCO3, 100 U/mL penicillin and 100 μg/mL streptomycin (pH 7.4). The cell suspension was plated onto 24-well plates. After gelation, 1.5 mL of MDCK cell medium containing 10 μM forskolin was added to each well and plates were maintained at 37° C. in a 5% CO2 humidified atmosphere.
The compound structures together with their approximate CFTR inhibition potencies (expressed as IC50 values) are provided in FIGS. 3 and 4. Indicated IC50 values for T01-07, T10, T12-14 were reported by Ma et al. (J Clin Invest 110: 1651-1658 (2002)). IC50 values for T08, T11, and T16 were determined by short-circuit analysis performed according to methods described herein. Indicated IC50 values for G01-05, G8-16 were reported by Sonawane et al. (FASEB J. 20: 130-132 (2006); Sonawane et al., Gastroenterology 132:1234-44 (2007)). IC50 values for G06 and G07 were determined by short-circuit current analysis performed according to methods described herein.
Medium containing forskolin and test compounds was changed every 12 h. At day 6, cysts (with diameters >50 μm) and non-cyst cell colonies were counted by phase-contrast light microscopy at 20× magnification (546 nm monochromatic illumination) using a Nikon TE 2000-S inverted microscope. In some experiments, compounds were added to medium in the continued presence of forskolin from day 4 after seeding and the medium containing forskolin and compounds was changed every 12 h for 8 days. Micrographs showing the same cysts in collagen gels (identified by markings on plates) were obtained every 2 days. For determination of cyst growth, cyst diameters were measured using Image J software. At least 10 cysts/well and 3 wells/group were measured for each condition.

[6] = cited references; cited from earlier work
[7] = Table 1, upper part, CFTR inhibitory activity, given as ranges, read-out: IC50
[8] = Table 2 summary table, given as ranges, read-out: IC50
[9] = Table 3, inhibition potency, read-out: IC50
[10] = values in text, forskolin-stimulated CFTR, read-out: IC50 (short-circuit current)
[11] = Table 1, lower parts, given as ranges, read-out: IC50

T1 sequence (P13569 whole entry): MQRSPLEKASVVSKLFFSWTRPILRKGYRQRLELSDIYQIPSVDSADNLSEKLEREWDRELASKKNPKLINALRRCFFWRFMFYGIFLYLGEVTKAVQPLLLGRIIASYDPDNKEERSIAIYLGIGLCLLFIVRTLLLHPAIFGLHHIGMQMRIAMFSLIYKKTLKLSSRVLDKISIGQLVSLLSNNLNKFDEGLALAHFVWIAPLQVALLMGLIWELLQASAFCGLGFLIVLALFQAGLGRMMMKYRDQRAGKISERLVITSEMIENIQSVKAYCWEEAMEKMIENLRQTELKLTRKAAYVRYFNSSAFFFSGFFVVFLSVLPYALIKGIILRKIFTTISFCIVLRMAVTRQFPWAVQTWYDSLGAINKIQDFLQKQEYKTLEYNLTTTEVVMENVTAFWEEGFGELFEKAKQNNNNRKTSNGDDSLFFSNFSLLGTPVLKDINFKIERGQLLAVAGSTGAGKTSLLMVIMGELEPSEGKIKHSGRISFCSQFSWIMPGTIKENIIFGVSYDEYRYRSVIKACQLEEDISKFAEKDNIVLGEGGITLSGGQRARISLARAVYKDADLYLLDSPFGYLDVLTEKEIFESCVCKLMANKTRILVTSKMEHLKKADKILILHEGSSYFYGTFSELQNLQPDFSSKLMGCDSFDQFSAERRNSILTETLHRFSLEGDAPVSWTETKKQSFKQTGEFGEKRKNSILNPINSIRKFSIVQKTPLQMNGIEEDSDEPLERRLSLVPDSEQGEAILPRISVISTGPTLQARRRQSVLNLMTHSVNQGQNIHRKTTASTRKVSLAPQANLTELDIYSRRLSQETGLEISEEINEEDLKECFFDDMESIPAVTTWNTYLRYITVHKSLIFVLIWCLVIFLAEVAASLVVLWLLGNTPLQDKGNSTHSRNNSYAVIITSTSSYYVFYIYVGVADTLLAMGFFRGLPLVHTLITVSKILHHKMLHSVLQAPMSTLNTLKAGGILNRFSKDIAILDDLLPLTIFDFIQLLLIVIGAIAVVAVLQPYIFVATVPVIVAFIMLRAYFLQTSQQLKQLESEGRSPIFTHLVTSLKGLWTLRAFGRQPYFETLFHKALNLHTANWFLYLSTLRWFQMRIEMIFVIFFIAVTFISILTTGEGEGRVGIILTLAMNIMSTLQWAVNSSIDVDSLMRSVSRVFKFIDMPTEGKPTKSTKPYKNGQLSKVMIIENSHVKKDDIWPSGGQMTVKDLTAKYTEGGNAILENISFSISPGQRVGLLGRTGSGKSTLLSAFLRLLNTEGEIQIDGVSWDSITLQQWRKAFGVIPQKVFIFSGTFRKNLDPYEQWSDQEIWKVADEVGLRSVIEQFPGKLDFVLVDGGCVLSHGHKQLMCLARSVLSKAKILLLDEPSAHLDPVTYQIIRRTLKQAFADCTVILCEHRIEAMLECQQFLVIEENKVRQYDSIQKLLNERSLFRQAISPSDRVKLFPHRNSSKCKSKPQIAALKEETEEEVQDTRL

SMILES: O=C1/C(=C/c2cc(Br)c(O)c(Br)c2O)SC(=S)N1c1cccc(C(F)(F)F)c1 [Compound 15, (Z)-5-(3,5-dibromo-2,4-dihydroxybenzylidene)-2-thioxo-3-(3-(trifluoromethyl)phenyl) thiazolidin-4-one]
- MDCK cell viability (in words) (MDCK cells [1]): reduced MDCK cell viability
- IC50 (human wildtype CFTR [2]; [7]): 5 to 10 µM
- IC50 (human wildtype CFTR [2]; [8]): 5 to 10 µM
- CFTR inhibitory activity (in words) (human wildtype CFTR [2]): modest inhibition activity

SMILES: Cc1c(N2C(=O)/C(=C/c3ccc(C(=O)O)cc3)SC2=S)cccc1C(F)(F)F [Compound 18, (Z)-4-((3-(2-methyl-3-(trifluoromethyl)phenyl)-4-oxo-2-thioxothiazolidin-5-ylidene)methyl)benzoic acid]
- solubility in saline / aqueous solubility [3]: 259 µM (≈ 110 µg/mL)
- % Cell viability 20 μM (FRT cells): 89%
- Crystal violet staining at 50 μM (in words) (FRT cells; 50 μM): reduced
- % Cell viability 50 μM (FRT cells; 50 μM): 72%
- IC50 (human wildtype CFTR [2]; [7]): 5 to 10 µM
- IC50 (human wildtype CFTR [2]; [8]): 5 to 10 µM
- IC50 (human wildtype CFTR [4]; [9]): 8.2 ± 0.4 µM
- inhibition of CFTR in short-circuit current analysis (in words) (human wildtype CFTR [4]): dose dependant inhibition
- IC50 (human wildtype CFTR [4]; [10]): 8 µM and 8 to 10 µM

SMILES: O=C(O)c1ccc(/C=C2\SC(=S)N(c3cccc(C(F)(F)F)c3)C2=O)cc1 [Compound 5, (Z)-4-((4-oxo-2-thioxo-3-(3-(trifluoromethyl)phenyl)thiazolidin-5-ylidene)methyl)benzoic acid, reference compound]
- Solubility in saline [3]: 17 µM (≈ 6.96 µg/mL)
- % Cell viability 20 μM (FRT cells): 86%
- effect on MDCK cyst enlargement/formation (in words) (MDCK cells [5]): inhibited cyst formation, but to a lesser extent
- water solubility [6]: less than 17 μM
- IC50 (human wildtype CFTR [2]; [7]): 0.1 to 1 µM
- IC50 (human wildtype CFTR [2]; [8]): 0.1 to 1 µM
- IC50 (human wildtype CFTR [4]; [9]): 0.38 ± 0.04 µM
- IC50 (human wildtype CFTR [4]; [10]): 0.4 µM and 0.25 to 0.5 µM

SMILES: O=C(O)c1ccc(/C=C2\SC(=O)N(c3cccc(C(F)(F)F)c3)C2=O)cc1 [Compound 47, (Z)-4-((2,4-dioxo-3-(3-(trifluoromethyl)phenyl)thiazolidin-5-ylidene)methyl)benzoic acid]
- increase of solubility in saline/water relative to CFTRinh-172 [3]: ~25 fold
- Solubility in saline [3]: 420 µM (≈ 165 µg/mL)
- % Cell viability 20 μM (FRT cells): 93%
- % Cell viability 50 μM (FRT cells; 50 μM): 91%
- IC50 (human wildtype CFTR [2]; [11]): 1 to 2 µM
- IC50 (human wildtype CFTR [2]; [8]): 1 to 2 µM
- IC50 (human wildtype CFTR [4]; [9]): 1.4 ± 0.2 µM
- inhibition of CFTR in short-circuit current analysis (in words) (human wildtype CFTR [4]): dose dependant inhibition
- reduction of CFTR inhibition potency relative to CFTRinh-172 (human wildtype CFTR [4]; short-circuit current assays): 3.6 fold
- IC50 (human wildtype CFTR [4]; [10]): 1 to 2 µM

SMILES: O=C(O)c1ccc(NC(=S)C2SC(=S)N(c3cccc(C(F)(F)F)c3)C2=O)cc1O (centres unmarked) [Compound 52, 2-hydroxy-4-(4-oxo-2-thioxo-3-(3-(trifluoromethyl)phenyl)thiazolidine-5-carbothioamido)benzoic acid]
- water solubility (in words) [3]: highly water soluble
- IC50 (human wildtype CFTR [2]; [11]): 10 to 20 µM
- IC50 (human wildtype CFTR [2]; [8]): 10 to 20 µM
- CFTR inhibitory activity (in words) (human wildtype CFTR [2]): inactive

SMILES: O=C1/C(=C/c2cc[n+]([O-])cc2)SC(=S)N1c1cccc(C(F)(F)F)c1 [Compound 17, (Z)-4-((4-oxo-2-thioxo-3-(3-(trifluoromethyl)phenyl)thiazolidin-5-ylidene)methyl)pyridine 1-oxide]
- solubility in saline / aqueous solubility [3]: 264 µM (≈ 101 µg/mL)
- IC50 (human wildtype CFTR [2]; [8]): 5 to 10 µM
- IC50 (human wildtype CFTR [2]; Tables 1 and 2, read-out: IC50 (CFTR inhibition)): 5 to 10 µM
- IC50 (human wildtype CFTR [4]; [9]): 8.7 ± 0.7 µM
- inhibition of CFTR in short-circuit current analysis (in words) (human wildtype CFTR [4]): dose dependant inhibition
- IC50 (human wildtype CFTR [4]; [10]): 9 µM and 7 to 9 µM
